Tests used:
[1] = Inhibition of p7 ion channel in BVDV VK-1 infected in calf heart cells assessed as reduction in viral growth by colorimetric method; assay type: cell-based, Bovine viral diarrhea virus 1; conditions: Bovine viral diarrhea virus isolates and strains
[2] = Selectivity index, ratio of CC50 for calf heart cells to IC50 for BVDV VK-1 infected in calf heart cells; assay type: toxicity, cell-based; conditions: cattle, read-out: Ratio CC50/IC50
[3] = Cytotoxicity against calf heart cells assessed as reduction in cell viability by colorimetric method; assay type: cell-based, Bos taurus; conditions: cattle

SMILES	IC50 [1]	selectivity ratio [2]	CC50 [3]
CC1(c2ccccc2)CCN(CCC23CC4CC(CC(C4)C2)C3)CC1	2.82 µM	32.1	90.7 µM
CN(C)c1cc[n+](C23CC4CC(CC(C4)C2)C3)cc1	24.4 µM	8.1	199 µM
OC(CN1CCCc2ccccc21)C12CC3CC(CC(C3)C1)C2 (centres undefined)	213 µM	> 1.5	> 321 µM
COP(=O)(OC)[C@@H](C(=O)C12CC3CC(CC(C3)C1)C2)[C@H](C[N+](=O)[O-])c1ccccc1 (relative stereo)	10.6 µM	> 21.7	> 230 µM
NCC12CC3CC(C1)CC(CC(=O)O)(C3)C2	382 µM	> 1	> 385 µM
O=C(O)CC12CC3CC(O)(C1)CC(CC(=O)O)(C3)C2	116 µM	> 3.2	> 373 µM
CCC1CC2CC3CC(C2)CC1(O)C3 (centres undefined)	4.24 µM	95.2	403 µM
CC(=O)NC(C)C12CC3CC(CC(C(=O)O)(C3)C1)C2 (centres undefined)	28.9 µM	> 13.1	> 377 µM
O=C1CCC(C23CC4CC(CC(C4)C2)C3)=NN1c1ccccc1	< 0.52 µM	> 450	235 µM
c1cc(OC23CC4CC(CC(C4)C2)C3)ccn1	37.4 µM	7.8	290 µM
c1ccc2c(c1)Oc1ncnn1C21C2CC3CC(C2)CC1C3 (centres undefined)	6.23 µM	> 54.7	> 341 µM
C1C2CC3CC1CC(C2)c1nc2c(nc13)C1CC3CC(C1)CC2C3	102 µM	> 3.1	> 312 µM
Oc1ccccc1C1(n2cncn2)C2CC3CC(C2)CC1C3 (centres undefined)	5.99 µM	> 56.5	> 339 µM
O=S1(=O)OC23CC4CC(CC(C4)C2)C[C@H]3[C@@H]1CNCc1ccccc1	56.5 µM	1.7	96 µM
CC12CC3(N)CC(CC(=O)O)(C1)CC(CC(=O)O)(C2)C3	118 µM	> 2.7	> 315 µM
CC(O)(CNC(=O)C(F)(F)F)C12CC3CC(CC(C3)C1)C2 (centres undefined)	75.4 µM	3.4	259 µM
CC(=O)NCC12CC3CC(C1)CC(CC(=O)O)(C3)C2	181 µM	> 2.1	> 377 µM
Oc1noc2c1C1CC3CC(CC2C3)C1	5.94 µM	> 82	> 487 µM
N#CC(C#N)=C(/C=C/N1CCOCC1)C12CC3CC(CC(C3)C1)C2	86.4 µM	> 3.6	> 309 µM
CC1=CCCN(CC(O)C23CC4CC(CC(C4)C2)C3)C1 (centres undefined)	25.2 µM	7.5	190 µM
O/N=C1\C(=N\O)C2CC3CC(CC1C3)C2	3.38 µM	142	480 µM
CC1=NC(C)(C23CC4CC(CC(C4)C2)C3)CO1 (centres undefined)	33.4 µM	5	168 µM
O/N=C1/CC2CC3CC(C2)CC1C3	7.21 µM	20.6	148 µM
O=c1ccc(C23CC4CC(CC(C4)C2)C3)n[nH]1	20 µM	> 21.8	> 434 µM
O=S1(=O)OC23CC4CC(CC(C4)C2)C[C@H]3[C@@H]1CN1CCOCC1	62.1 µM	> 4.7	> 293 µM
O=C(O)C(Br)C12CC3CC(CC(O)(C3)C1)C2 (centres undefined)	193 µM	> 1.8	> 346 µM
O=C1/C(=N/O)C2CC3CC(CC1C3)C2	177 µM	> 2.9	> 518 µM

SMILES	IC50 [1]	selectivity ratio [2]	CC50 [3]
CCN(CC)C[C@H]1O[C@@H]1C12CC3CC(CC(C3)C1)C2 (relative stereo)	39.5 µM	2.3	90.4 µM
C[C@H](O)[C@H](N)C12CC3CC(CC(C3)C1)C2	103 µM	> 4	> 407 µM
c1ccc2nc3c(nc2c1)C1CC2CC(C1)CC3C2	7.87 µM	> 50.8	> 400 µM
c1ccc2c[n+](CCC34CC5CC(CC(C5)C3)C4)ccc2c1	56.6 µM	1.5	83 µM
O=c1cc[nH]cc1C12CC3CC(CC(C3)C1)C2	12.9 µM	> 33.9	> 436 µM
CC(=C(C#N)C#N)C12CC3CC(CC(C3)C1)C2	25.9 µM	4.1	106 µM
C1CN(C[C@H]2O[C@@H]2C23CC4CC(CC(C4)C2)C3)CCO1 (relative stereo)	164 µM	1.7	271 µM
C=C(COc1ccccc1C(=O)OCC)C12CC3CC(CC(C3)C1)C2	4.57 µM	7.8	35.8 µM
CCN(CC)C[C@H](Cl)[C@H](O)C12CC3CC(CC(C3)C1)C2 (relative stereo)	13.4 µM	20.5	274 µM
CC1(c2ccccc2)CCCN(CCC23CC4CC(CC(C4)C2)C3)C1 (centres undefined)	3.02 µM	28.7	86.7 µM
O=c1[nH][nH]c2c1C1CC3CC(CC2C3)C1	39.7 µM	> 12.2	> 485 µM
O=C(C[n+]1ccccc1)C12CC3CC(CC(C3)C1)C2	75.9 µM	> 3.9	> 297 µM
CN(C)C1=NC2(c3ccccc3O1)C1CC3CC(C1)CC2C3 (centres undefined)	70.9 µM	1	72.1 µM
O=c1[nH]cc(C23CC4CC(CC(C4)C2)C3)cc1C12CC3CC(CC(C3)C1)C2	2.56 µM	> 107	> 275 µM
O=c1ccn(C23CC4CC(CC(C4)C2)C3)cc1	35.3 µM	4.5	158 µM
O=C([C@@H]([C@H](C[N+](=O)[O-])c1ccccc1)S(=O)(=O)c1ccccc1)C12CC3CC(CC(C3)C1)C2 (relative stereo)	1.89 µM	> 114	> 215 µM
O=C(O)CC12CC3(O)CC(CC(=O)O)(C1)CC(C(=O)O)(C3)C2	282 µM	> 1.1	> 320 µM
O=C(C[n+]1cccc2ccccc21)C12CC3CC(CC(C3)C1)C2	15.2 µM	8.7	133 µM
CSc1ncn(C2(c3ccccc3O)C3CC4CC(C3)CC2C4)n1 (centres undefined)	22.9 µM	5.2	119 µM
C1CN[C@H]2C3CC4CC(CC(C4)[C@H]2N1)C3	1.69 µM	> 211	> 358 µM
C[C@@H]1N[C@H]1C12CC3CC(CC(C3)C1)C2	76.7 µM	1.4	105 µM
c1ccc2[nH]cc(C34CC5CC(CC(C5)C3)C4)cc[nH]c2c1	20.3 µM	6.3	128 µM
Cc1cccc[n+]1CCC12CC3CC(CC(C3)C1)C2	9.3 µM	32	297 µM
O=S1(=O)OC23CC4CC(CC(C4)C2)C[C@H]3[C@@H]1CN1CCCCC1	163 µM	> 1.8	> 295 µM
Cc1cccc[n+]1CC(=O)C12CC3CC(CC(C3)C1)C2	78.8 µM	> 3.6	> 285 µM
O=C(NCc1ccccc1)C1C(=O)C2CC3CC(C2)CC1C3 (centres undefined)	66.6 µM	> 5.1	> 336 µM
